Test results: US20210206818A1, “MESSENGER RIBONUCLEIC ACIDS FOR THE PRODUCTION OF INTRACELLULAR BINDING POLYPEPTIDES AND METHODS OF USE THEREOF” (ModernaTX, Inc., priority 2016, published 2021)

How the values were obtained:
MCL1 = experiment: Western blotting of MCL1 downregulation in Hep3B cells; assay type: cell-based, human; conditions: 24 hours, sorafenib at 10 uM
Procedure: A first series of experiments was conducted to determine whether specific targeting of MCL1 recapitulates sorafenib synergy with SQT-BH3 in cells in vitro.

[1] = tested on: Hep3B human hepatocellular carcinoma cells; experiment: Cell death of Hep3B cells transfected with truncated BID (tBID) mmRNA constructs (CellTiterGlo); assay type: cell-based; conditions: CellTiterGlo (CTG) assay, varying doses
Text: One construct encoded a single copy of amino acids 61-195 of the BID protein that includes its BH3 domain (with a FLAG epitope tag). The open reading frame (ORF) amino acid sequence and corresponding nucleotide sequence encoding the ORF a.a. sequence are shown in SEQ ID NOs: 289 and 290, respectively. The sequence for the corresponding construct without the FLAG epitope tag is shown in SEQ ID NO: 291. A second construct encoded a single copy of amino acids 77-195 of the BID protein that includes its BH3 domain (with a FLAG epitope tag). The open reading frame (ORF) amino acid sequence and corresponding nucleotide sequence encoding the ORF a.a. sequence are shown in SEQ ID NOs: 292 and 293, respectively. The sequence for the corresponding construct without the FLAG epitope tag is shown in SEQ ID NO: 294. The open reading frame (ORF) amino acid sequence and corresponding nucleotide sequence encoding the ORF a.a. sequence of a third construct, containing amino acids 61-104 of the BID protein, are shown in SEQ ID NOs: 286 and 287, respectively. The sequence for the corresponding construct without the FLAG epitope tag is shown in SEQ ID NO: 288. […]
Hep3B cells/well were plated in 96 well plates and the cells were transfected with varying doses of the mmRNA constructs. Cell death was measured using the CellTiterGlo (CTG) assay. […]

Molecule: CNC(=O)c1cc(Oc2ccc(NC(=O)Nc3ccc(Cl)c(C(F)(F)F)c3)cc2)ccn1 [sorafenib]
- MCL1 downregulation (Western blotting) (MCL1): downregulated MCL1

B1: tBID (77-195): mmRNA encoding a single copy of amino acids 77-195 of the BID protein with FLAG tag; SEQ ID NOs: 292 and 293 (nucleic acid)
DNA: ATGGAAAGTCAAGAAGACATCATCCGGAATATTGCCAGGCACCTCGCCCAGGTCGGGGACAGCATGGACCGTAGCATCCCTCCGGGCCTGGTGAACGGCCTGGCCCTGCAGCTCAGGAACACCAGCCGGTCGGAGGAGGACCGGAACAGGGACCTGGCCACTGCCCTGGAGCAGCTGCTGCAGGCCTACCCTAGAGACATGGAGAAGGAGAAGACCATGCTGGTGCTGGCCCTGCTGCTGGCCAAGAAGGTGGCCAGTCACACGCCGTCCTTGCTCCGTGATGTCTTTCACACAACAGTGAATTTTATTAACCAGAACCTACGCACCTACGTGAGGAGCTTAGCCAGAAATGGGATGGACATGGATTACAAGGACGATGATGACAAG
modifications: mmRNA, FLAG tag; Synthetic: hum.tBID(77-195).FLAG
- apoptosis of Hep3B cells [1]: induced apoptosis of Hep3B cells
